In brackets after ≈: the same amount, converted by molar mass.
How the values were obtained:
[1] = Therapeutic index, ratio of MTC for human primary amnion cells to lowest drug level causing inhibition of HSV1; conditions: read-out: TI
[2] = Cytotoxicity against human primary amnion cells assessed as morphological changes by microscopic examination; assay type: functional
Human alphaherpesvirus 1 [3] = experiment: Antiviral activity against HSV1 infected in human primary amnion cells assessed as inhibition of virus-induced pathogenic effect; assay type: functional
[4] = tested on: Human immunodeficiency virus; experiment: Antiviral activity against HIV assessed as reduction of viral protein production at 0.27 uM; assay type: functional; design: scale not given: the % may be the effect or the level left
[5] = tested on: Human immunodeficiency virus; experiment: Antiviral activity against HIV assessed as reduction of viral protein production at 0.52 uM; assay type: functional; design: scale not given: the % may be the effect or the level left
[6] = tested on: Human immunodeficiency virus 1; experiment: Antiviral activity against HIV1 infected in human H9 cells assessed inhibition of viral replication; assay type: functional, organism-based; conditions: Human immunodeficiency virus 1, H9
[7] = Therapeutic index, ratio of inhibition of human H9 cells to EC50 for HIV1; assay type: cell-based; conditions: read-out: TI
[8] = tested on: Vesicular stomatitis virus; experiment: Antiviral activity against VSV infected in BHK cells assessed as inhibition of plaque formation; assay type: functional, organism-based
Human alphaherpesvirus 1 [9] = experiment: Antiviral activity against HSV1 infected in monkey CV-1 cells assessed as inhibition of plaque formation; assay type: functional, organism-based; conditions: Human alphaherpesvirus 1, CV-1
[10] = Cytotoxicity against rabbit RL33 cells; assay type: cell-based, Oryctolagus cuniculus
[11] = tested on: Vesicular stomatitis virus; experiment: Antiviral activity against VSV infected in rabbit RL-33 cells; assay type: functional
Sindbis virus [12] = experiment: Antiviral activity against Sindbis virus in mouse 3T3-L1 cells at 273 nM; assay type: functional
Murid betaherpesvirus 1 [13] = experiment: Antiviral activity against Murine cytomegalovirus in mouse 3T3-L1 cells at 263 nM; assay type: functional; conditions: Murid betaherpesvirus 1, 3T3-L1
[14] = tested on: Human immunodeficiency virus; experiment: Antiviral activity against HIV; assay type: functional, organism-based; conditions: Human immunodeficiency virus 1
[15] = Inhibition of human DNA polymerase alpha
Murid betaherpesvirus 1 [16] = experiment: Antiviral activity against Murine cytomegalovirus in mouse 3T3-L1 cells at 241 nM; assay type: functional; conditions: Murid betaherpesvirus 1, 3T3-L1
Sindbis virus [17] = experiment: Antiviral activity against Sindbis virus in mouse 3T3-L1 cells at 241 nM; assay type: functional

COc1cc([C@@H]2c3cc4c(cc3[C@H](O)[C@H]3COC[C@H]23)OCO4)cc(OC)c1OC [ANHYDROPODOPHYLLOL]
selectivity ratio [1]: 800 | Activity [2]: >200 µM | Activity (Human alphaherpesvirus 1 [3]): 0.25 µM

COc1cc(C[C@H]2C(=O)OC[C@@H]2Cc2ccc(OC)c(OC)c2)ccc1O [ARCTIGENIN]
Activity [4]: 60% | Activity [5]: 60% | EC50 [6]: 0.42 µM | selectivity ratio [7]: 9

COc1cc([C@@H]2c3cc4c(cc3[C@H](O)[C@H]3COC(=O)[C@@H]23)OCO4)cc(OC)c1OC [AXL-1717]
selectivity ratio [1]: 75 | Activity [2]: 140 µM | Activity (Human alphaherpesvirus 1 [3]): 1.9 µM

COc1cc([C@@H]2c3cc4c(c(O)c3C[C@H]3COC(=O)[C@@H]32)OCO4)cc(OC)c1OC [BETA-PELTATIN A]
selectivity ratio [1]: 333 | Activity [2]: 120 µM | Activity (Human alphaherpesvirus 1 [3]): 0.36 µM

COc1cc([C@@H]2c3cc4c(cc3C[C@H]3COC(=O)[C@H]32)OCO4)cc(OC)c1OC [DEOXYPICROPODOPHYLLIN]
IC50 [8]: 2 µM | IC50 (Human alphaherpesvirus 1 [9]): 2 µM

COc1cc([C@@H]2c3cc4c(cc3C[C@H]3CSC(=O)[C@@H]32)OCO4)cc(OC)c1OC [DEOXYPODOPHYLLOTOXIN CYCLIC SULFIDE]
selectivity ratio [1]: 3 | Activity [2]: 37 µM | Activity (Human alphaherpesvirus 1 [3]): 12 µM

COc1cc([C@@H]2c3cc4c(cc3C[C@H]3CC(=O)C[C@@H]32)OCO4)cc(OC)c1OC [DEOXYPODOPHYLLOTOXIN CYCLOPENTANONE]
selectivity ratio [1]: 2.5 | Activity [2]: 122 µM | Activity (Human alphaherpesvirus 1 [3]): 49 µM

COc1cc([C@@H]2c3cc4c(cc3C[C@H]3COC(=O)[C@@H]32)OCO4)cc(OC)c1OC [DESOXYPODOPHYLLOTOXIN]
selectivity ratio [1]: 667 | IC50 [8]: < 0.025 µM | IC50 (Human alphaherpesvirus 1 [9]): 0.025 µM | Activity [2]: >25 µM | Activity (Human alphaherpesvirus 1 [3]): 0.038 µM

COc1cc2c(O)c3c(c(-c4ccc5c(c4)OCO5)c2cc1OC)C(=O)OC3 [DIPHYLLIN]
Activity [10]: 85 µM | MIC [11]: 0.16 µM (≈ 0.0609 µg/mL) | inhibition at 0.273 µM (Sindbis virus [12]): 18% | inhibition at 0.263 µM (Murid betaherpesvirus 1 [13]): 11%

COc1cc([C@@H]2c3cc4c(cc3[C@@H](OC(C)=O)[C@H]3CSC(=O)[C@H]23)OCO4)cc(OC)c1OC [EPIPODOPHYLLOTOXIN ACETATE]
IC50 [8]: 0.22 µM | IC50 (Human alphaherpesvirus 1 [9]): 0.44 µM

COc1cc([C@@H]2c3cc4c(cc3[C@@H](O)[C@H]3COC(=O)[C@H]23)OCO4)cc(OC)c1OC [EPIPODOPHYLLOTOXIN]
selectivity ratio [1]: 15 | Activity [2]: 24 µM | Activity (Human alphaherpesvirus 1 [3]): 1.6 µM

COc1cc([C@@H]2c3cc4c(cc3[C@@H](O[C@@H]3O[C@@H]5CO[C@@H](C)O[C@H]5[C@H](O)[C@H]3O)[C@H]3COC(=O)[C@H]23)OCO4)cc(OC)c1O [ETOPOSIDE]
selectivity ratio [1]: 1.2 | Activity [2]: 100 µM | Activity (Human alphaherpesvirus 1 [3]): 85 µM

COc1cc2c(c(OC)c1OC)-c1c(cc3c(c1OC)OCO3)[C@H](OC(=O)c1ccccc1)[C@@](C)(O)[C@@H](C)C2 [GOMISIN G]
IC50 [14]: 0.011 µM

COc1cc2c(OC)c3c(c(-c4ccc5c(c4)OCO5)c2cc1OC)C(=O)OC3 [JUSTICIDIN A]
Activity [10]: 166 µM | MIC [11]: 0.65 µM (≈ 0.256 µg/mL)

COc1cc2c(c(OC)c1OC)-c1c(cc3c(c1OC)OCO3)C[C@@H](C)[C@@H](C)C2 [KADSURANIN]
IC50 [14]: 2 µM

COCc1cc2cc(OC)c(OC)cc2c(-c2ccc3c(c2)OCO3)c1C=O [PHYLLAMYRICIN B]
IC50 [15]: 3.5 µM

COc1cc([C@@H]2c3cc4c(cc3[C@H](O)[C@H]3COC(=O)[C@H]23)OCO4)cc(OC)c1OC [PODOFILOX]
selectivity ratio [1]: 6000 | inhibition at 0.241 µM (Murid betaherpesvirus 1 [16]): 74% | inhibition at 0.241 µM (Sindbis virus [17]): 3% | IC50 [8]: 0.1 µM | IC50 (Human alphaherpesvirus 1 [9]): 0.05 µM | Activity [2]: 140 µM | Activity (Human alphaherpesvirus 1 [3]): 0.024 µM

COc1cc2cc3c(c(-c4ccc5c(c4)OCO5)c2cc1OC)COC3=O [RETROJUSTICIDIN B]
IC50 [15]: 5.5 µM

COc1c2c(cc3c1-c1c(cc4c(c1OC)OCO4)C[C@H](C)[C@H](C)C3)OCO2 [SCHISANDRIN C]
IC50 [14]: 3.1 µM
